Assay results as given in PubChem BioAssay (NCI).
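Test compounds were applied to cells in 96-well plates for 48 hours at 5 doses. TGI denotes the concentration required for complete inhibition of growth.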

Columns and labels:
Assay in all cases: DTP human tumour cell line panel, 48 h
MALME-3M melanoma = test system: MALME-3M melanoma
HCT-116 colon = test system: HCT-116 colon
BT-549 breast = test system: BT-549 breast
UACC-62 melanoma = test system: UACC-62 melanoma
CCRF-CEM leukemia = test system: CCRF-CEM leukemia
786-0 renal = test system: 786-0 renal
SW-620 colon = test system: SW-620 colon
TK-10 renal = test system: TK-10 renal
LOX IMVI melanoma = test system: LOX IMVI melanoma
NCI-H23 lung = test system: NCI-H23 lung
UO-31 renal = test system: UO-31 renal
OVCAR-8 ovarian = test system: OVCAR-8 ovarian
U251 CNS = test system: U251 CNS
EKVX NSCLC = test system: EKVX NSCLC
SK-MEL-5 melanoma = test system: SK-MEL-5 melanoma
NCI-H460 lung = test system: NCI-H460 lung
SK-MEL-28 melanoma = test system: SK-MEL-28 melanoma
MDA-MB-435 = test system: MDA-MB-435
COLO 205 colon = test system: COLO 205 colon
MDA-N = test system: MDA-N
SK-OV-3 ovarian = test system: SK-OV-3 ovarian
K-562 leukemia = test system: K-562 leukemia
A498 renal = test system: A498 renal
RPMI-8226 leukemia = test system: RPMI-8226 leukemia
MOLT-4 leukemia = test system: MOLT-4 leukemia
NCI/ADR-RES ovarian = test system: NCI/ADR-RES ovarian
SF-295 CNS = test system: SF-295 CNS
OVCAR-5 ovarian = test system: OVCAR-5 ovarian
HCC-2998 colon = test system: HCC-2998 colon
MCF7 breast = test system: MCF7 breast
SR leukemia = test system: SR leukemia
A549 NSCLC = test system: A549 NSCLC
NCI-H522 lung = test system: NCI-H522 lung
DU-145 prostate = test system: DU-145 prostate
OVCAR-3 ovarian = test system: OVCAR-3 ovarian
UACC-257 melanoma = test system: UACC-257 melanoma
OVCAR-4 ovarian = test system: OVCAR-4 ovarian
SK-MEL-2 melanoma = test system: SK-MEL-2 melanoma
SF-268 CNS = test system: SF-268 CNS
MDA-MB-231 breast = test system: MDA-MB-231 breast
CAKI-1 renal = test system: CAKI-1 renal
HOP-62 NSCLC = test system: HOP-62 NSCLC
HCT-15 colon = test system: HCT-15 colon
HS 578T breast = test system: HS 578T breast
SNB-19 CNS = test system: SNB-19 CNS
HT29 colon = test system: HT29 colon
T-47D breast = test system: T-47D breast
SF-539 CNS = test system: SF-539 CNS
RXF 393 renal = test system: RXF 393 renal
IGROV1 ovarian = test system: IGROV1 ovarian
PC-3 prostate = test system: PC-3 prostate
M14 melanoma = test system: M14 melanoma
SN12C renal = test system: SN12C renal
HOP-92 NSCLC = test system: HOP-92 NSCLC
KM12 colon = test system: KM12 colon
NCI-H226 lung = test system: NCI-H226 lung
ACHN renal = test system: ACHN renal
SNB-75 CNS = test system: SNB-75 CNS

CCOC(=O)Oc1ccc2c(c1)c(=O)c1c(NCCCN(CC)CC)ccc3nnn2c31
TGI (MALME-3M melanoma): 29.7 µM | TGI (HCT-116 colon): 15.8 µM | TGI (BT-549 breast): 32 µM | TGI (UACC-62 melanoma): 29 µM | TGI (CCRF-CEM leukemia): 6.88 µM | TGI (786-0 renal): 15.7 µM | TGI (SW-620 colon): 16.2 µM | TGI (TK-10 renal): 17.5 µM | TGI (LOX IMVI melanoma): 12 µM | TGI (NCI-H23 lung): 29.3 µM | TGI (UO-31 renal): 15 µM | TGI (OVCAR-8 ovarian): 19.5 µM | TGI (U251 CNS): 23.6 µM | TGI (EKVX NSCLC): 23 µM | TGI (SK-MEL-5 melanoma): 23.2 µM | TGI (NCI-H460 lung): 15.2 µM | TGI (SK-MEL-28 melanoma): 33.2 µM | TGI (MDA-MB-435): 18.3 µM | TGI (COLO 205 colon): 25.1 µM | TGI (MDA-N): 20.6 µM | TGI (SK-OV-3 ovarian): 23.4 µM | TGI (K-562 leukemia): > 52.7 µM | TGI (A498 renal): 23.2 µM | TGI (RPMI-8226 leukemia): 10.1 µM | TGI (MOLT-4 leukemia): > 100 µM | TGI (NCI/ADR-RES ovarian): 28.1 µM | TGI (SF-295 CNS): 21.3 µM | TGI (OVCAR-5 ovarian): 33.5 µM | TGI (HCC-2998 colon): 21.8 µM | TGI (MCF7 breast): 15.7 µM | TGI (SR leukemia): > 53 µM | TGI (A549 NSCLC): 16.9 µM | TGI (NCI-H522 lung): 19.7 µM | TGI (DU-145 prostate): 17.4 µM | TGI (OVCAR-3 ovarian): 20 µM | TGI (UACC-257 melanoma): 29.8 µM | TGI (OVCAR-4 ovarian): 20.2 µM | TGI (SK-MEL-2 melanoma): 30 µM | TGI (SF-268 CNS): 28.2 µM | TGI (MDA-MB-231 breast): 21.8 µM | TGI (CAKI-1 renal): 9.75 µM | TGI (HOP-62 NSCLC): 12.5 µM | TGI (HCT-15 colon): 21 µM | TGI (HS 578T breast): 40.7 µM | TGI (SNB-19 CNS): 19.5 µM | TGI (HT29 colon): 15.9 µM | TGI (T-47D breast): 31.1 µM | TGI (SF-539 CNS): 19 µM | TGI (RXF 393 renal): 19.8 µM | TGI (IGROV1 ovarian): 34.2 µM | TGI (PC-3 prostate): 20.9 µM | TGI (M14 melanoma): 25.4 µM | TGI (SN12C renal): 19.1 µM | TGI (HOP-92 NSCLC): 24.6 µM | TGI (KM12 colon): 19.8 µM | TGI (NCI-H226 lung): 19.8 µM | TGI (ACHN renal): 15.8 µM

CSc1nc(C)c(CCCl)c(Cl)n1
TGI (MALME-3M melanoma): > 100 µM | TGI (HCT-116 colon): > 100 µM | TGI (BT-549 breast): > 100 µM | TGI (UACC-62 melanoma): > 100 µM | TGI (CCRF-CEM leukemia): > 100 µM | TGI (786-0 renal): > 100 µM | TGI (SW-620 colon): > 100 µM | TGI (TK-10 renal): > 100 µM | TGI (LOX IMVI melanoma): > 100 µM | TGI (NCI-H23 lung): > 100 µM | TGI (UO-31 renal): > 100 µM | TGI (OVCAR-8 ovarian): > 100 µM | TGI (U251 CNS): > 100 µM | TGI (EKVX NSCLC): > 100 µM | TGI (SK-MEL-5 melanoma): > 100 µM | TGI (NCI-H460 lung): > 100 µM | TGI (SK-MEL-28 melanoma): > 100 µM | TGI (MDA-MB-435): > 100 µM | TGI (COLO 205 colon): > 100 µM | TGI (MDA-N): > 100 µM | TGI (SNB-75 CNS): > 100 µM | TGI (SK-OV-3 ovarian): > 100 µM | TGI (K-562 leukemia): > 100 µM | TGI (A498 renal): > 100 µM | TGI (MOLT-4 leukemia): > 100 µM | TGI (NCI/ADR-RES ovarian): > 100 µM | TGI (SF-295 CNS): > 100 µM | TGI (HCC-2998 colon): > 100 µM | TGI (A549 NSCLC): > 100 µM | TGI (NCI-H522 lung): 49.9 µM | TGI (DU-145 prostate): > 100 µM | TGI (OVCAR-3 ovarian): > 100 µM | TGI (UACC-257 melanoma): > 100 µM | TGI (OVCAR-4 ovarian): > 100 µM | TGI (SF-268 CNS): > 100 µM | TGI (MDA-MB-231 breast): > 100 µM | TGI (CAKI-1 renal): > 100 µM | TGI (HOP-62 NSCLC): > 100 µM | TGI (HCT-15 colon): > 100 µM | TGI (HS 578T breast): > 100 µM | TGI (SNB-19 CNS): > 100 µM | TGI (HT29 colon): > 100 µM | TGI (T-47D breast): > 100 µM | TGI (SF-539 CNS): > 100 µM | TGI (RXF 393 renal): > 100 µM | TGI (IGROV1 ovarian): > 100 µM | TGI (PC-3 prostate): > 100 µM | TGI (M14 melanoma): > 100 µM | TGI (SN12C renal): > 100 µM | TGI (ACHN renal): > 100 µM
